ChEMBL document CHEMBL1201862, “PubChem BioAssay data set” (2004)
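Where inhibition never reached the appropriate level, the endpoint shown equals the highest concentration tested. Otherwise, values were interpolated linearly from a five-concentration, 48-hour dose response in 96-well plates. Here, GI50 denotes the concentration required for 50% inhibition of growth.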 The source made the active and inactive calls. No stated cut-off is given here; in the data, active = GI50 up to about 1.1 µM and inactive = higher.

Experiments:
Assay in all cases: NCI anticancer screen, dose series, 48 h
[1] = test system: 786-0
[2] = test system: A498
[3] = test system: A549
[4] = test system: ACHN
[5] = test system: BT-549
[6] = test system: CAKI-1
[7] = test system: CCRF-CEM
[8] = test system: COLO 205
[9] = test system: DLD-1
[10] = test system: DMS-114
[11] = test system: DMS-273
[12] = test system: EKVX
[13] = test system: HCC 2998
[14] = test system: HCT-116
[15] = test system: HCT-15
[16] = test system: HL-60
[17] = test system: HOP-18
[18] = test system: HOP-62
[19] = test system: HOP-92
[20] = test system: HT-29
[21] = test system: Hs-578T
[22] = test system: IGROV-1
[23] = test system: K562
[24] = test system: KM-20L2
[25] = test system: KM12
[26] = test system: LOX IMVI
[27] = test system: LXFL 529
[28] = test system: M14
[29] = test system: M19-MEL
[30] = test system: MCF7
[31] = test system: MDA-MB-231
[32] = test system: MDA-MB-435
[33] = test system: MDA-N
[34] = test system: MOLT-4
[35] = test system: Malme-3M
[36] = test system: NCI-H226
[37] = test system: NCI-H23
[38] = test system: NCI-H460
[39] = test system: NCI-H522
[40] = test system: OVCAR-3
[41] = test system: OVCAR-4
[42] = test system: OVCAR-5
[43] = test system: OVCAR-8
[44] = test system: PC-3
[45] = test system: RPMI-8226
[46] = test system: RXF 393
[47] = test system: RXF 631
[48] = test system: SF-268
[49] = test system: SF-295
[50] = test system: SF-539
[51] = test system: SK-MEL-28
[52] = test system: SK-MEL-2
[53] = test system: SK-MEL-5
[54] = test system: SK-OV-3
[55] = test system: SN12C
[56] = test system: SNB-19
[57] = test system: SNB-75
[58] = test system: SNB-78
[59] = test system: SR
[60] = test system: SW-620
[61] = test system: T47D
[62] = test system: TK-10
[63] = test system: U-251
[64] = test system: UACC-257
[65] = test system: UACC-62
[66] = test system: UO-31
[67] = test system: XF498

CN(C)C(=S)/N=c1\ssc(=S)n1Cc1ccco1
GI50 [1]: 3720 nM (inactive) | GI50 [2]: 1380 nM (inactive) | GI50 [3]: 1980 nM (inactive) | GI50 [4]: 32300 nM (inactive) | GI50 [5]: 12200 nM (inactive) | GI50 [6]: 2010 nM (inactive) | GI50 [7]: 975 nM (active) | GI50 [8]: 2210 nM (inactive) | GI50 [9]: 2860 nM (inactive) | GI50 [10]: 1990 nM (inactive) | GI50 [11]: 587 nM (active) | GI50 [12]: 6900 nM (inactive) | GI50 [13]: 4610 nM (inactive) | GI50 [14]: 1530 nM (inactive) | GI50 [15]: 2200 nM | GI50 [16]: 379 nM (active) | GI50 [17]: 82200 nM (inactive) | GI50 [18]: 2560 nM (inactive) | GI50 [19]: > 100000 nM (inactive) | GI50 [20]: 998 nM (active) | GI50 [21]: 310 nM (active) | GI50 [22]: 11100 nM (inactive) | GI50 [23]: 348 nM (active) | GI50 [24]: 1930 nM (inactive) | GI50 [25]: 2060 nM (inactive) | GI50 [26]: 2400 nM (inactive) | GI50 [27]: 3480 nM (inactive) | GI50 [28]: 2150 nM (inactive) | GI50 [29]: 2160 nM (inactive) | GI50 [30]: 490 nM (active) | GI50 [31]: 10400 nM (inactive) | GI50 [32]: 274 nM (active) | GI50 [33]: 220 nM (active) | GI50 [34]: 2090 nM (inactive) | GI50 [35]: 3790 nM (inactive) | GI50 [36]: 12000 nM (inactive) | GI50 [37]: 2380 nM (inactive) | GI50 [38]: 1340 nM (inactive) | GI50 [39]: 249 nM (active) | GI50 [40]: 1150 nM (inactive) | GI50 [41]: 13600 nM (inactive) | GI50 [42]: 32000 nM (inactive) | GI50 [43]: 3790 nM (inactive) | GI50 [44]: 509 nM (active) | GI50 [45]: 1480 nM (inactive) | GI50 [46]: 998 nM (active) | GI50 [47]: 4690 nM (inactive) | GI50 [48]: 7460 nM (inactive) | GI50 [49]: 2100 nM (inactive) | GI50 [50]: 1950 nM (inactive) | GI50 [51]: 8070 nM (inactive) | GI50 [52]: 2370 nM (inactive) | GI50 [53]: 1220 nM (inactive) | GI50 [54]: 1710 nM (inactive) | GI50 [55]: 4210 nM (inactive) | GI50 [56]: 2900 nM (inactive) | GI50 [57]: 771 nM (active) | GI50 [58]: 3180 nM (inactive) | GI50 [59]: 1970 nM (inactive) | GI50 [60]: 701 nM (active) | GI50 [61]: 571 nM (active) | GI50 [62]: 20600 nM (inactive) | GI50 [63]: 1150 nM (inactive) | GI50 [64]: 3440 nM (inactive) | GI50 [65]: 879 nM (active) | GI50 [66]: 5570 nM (inactive) | GI50 [67]: 4390 nM (inactive)
